Data on 34 molecules can be found in patent US6727245B2, “Heterobicyclic derivatives” (Fujisawa Pharmaceutical Co., Ltd., priority 1994, dated 2004).

The term melting point denotes the temperature, or range, at which the solid turns liquid. `O=C(Nc1cccc(-n2c(=O)c(Cc3cccnc3)nc3cccnc32)c1)Oc1ccccc1` showed a melting point of 227 to 232 °C.

For `COc1ccccc1NC(=O)Nc1cccc(-n2c(=O)c(CCC(=O)O)nc3cccnc32)c1` [Example 16(12), 2-(2-Carboxyethyl)-3-oxo-4-[3-[3-(2-methoxyphenyl)-ureido]phenyl]-3,4-dihydropyrido[2,3-b]pyrazine], the melting point was 143 to 153 °C (dec.).

For the molecule `COc1ccccc1NC(=O)Nc1cccc(-n2c(=O)c(Cc3ccc(O)cc3)nc3cccnc32)c1` [Example 16(13), 2-(4-Hydroxyphenylmethyl)-3-oxo-4-[3-[3-(2-methoxyphenyl)ureido]phenyl]-3,4-dihydropyrido-[2,3-b]pyrazine], the melting point lay in the range of 220 to 221 °C.

For the molecule `COc1ccccc1NC(=O)Nc1cccc(-n2c(=O)c(Cc3ccccc3[N+](=O)[O-])nc3cccnc32)c1` [Example 16(14), 2-(2-Nitrophenylmethyl)-3-oxo-4-[3-[3-(2-methoxyphenyl)ureido]phenyl]-3,4-dihydropyrido[2,3-b]pyrazine], the melting point is 200 to 208 °C (dec.).

Take `CC(=O)Nc1cccc(-n2c(=O)c(CCC(=O)O)nc3cccnc32)c1` [Example 16(15), 4-(3-Acetamidophenyl)-2-(2-carboxyethyl)-3-oxo-3,4-dihydropyrido[2,3-b]pyrazine]: the melting point is 264 to 269 °C (dec.).

As to `CCOc1ccc2nc(Cc3ccccc3)c(=O)n(-c3cccc(NC(C)=O)c3)c2n1` [Example 16(16), 4-(3-Acetamidophenyl)-2-benzyl-6-ethoxy-3-oxo-3,4-dihydropyrido[2,3-b]pyrazine], the melting point fell in the range of 212 to 214 °C.

In the case of `COc1ccccc1NC(=O)Nc1cccc(-n2c(=O)c(CCC(=O)ON3C(=O)CCC3=O)nc3cccnc32)c1` [Example 23, 4-[3-[3-(2-methoxyphenyl)ureido]-phenyl]-3-oxo-2-[2-succinimidooxycarbonylethyl)-3,4-dihydropyrido[2,3-b]pyrazine], the melting point is 235 to 237 °C.

As to `COc1ccccc1NC(=O)Nc1cccc(-n2c(=O)c(CCC(=O)N(C)C)nc3cccnc32)c1` [Example 24, 2-[2-(N,N-dimethylcarbamoyl)ethyl]-3-oxo-4-[3-[3-(2-methoxyphenyl)-ureido]phenyl]-3,4-dihydropyrido[2,3-b]pyrazine], the melting point fell in the range of 242 to 245 °C.

In turn, `CCOC(=O)CCc1nc2cccnc2n(-c2cccc(NC(=O)Nc3ccccc3OC)c2)c1=O` [Example 33, 2-(2-ethoxycarbonylethyl)-3-oxo-4-[3-[3-(2-methoxyphenyl)-ureido]phenyl]-3,4-dihydropyrido[2,3-b]pyrazine] showed a melting point of 175 °C.

As for `CCCOC(=O)CCc1nc2cccnc2n(-c2cccc(NC(=O)Nc3ccccc3OC)c2)c1=O` [Example 34(1), 4-[3-[3-(2-Methoxyphenyl)ureido]phenyl]-3-oxo-2-(2-propyloxycarbonylethyl)-3,4-dihydropyrido[2,3-b]-pyrazine], the melting point lay in the range of 161 to 163 °C.

In turn, `COC(=O)CCc1nc2cccnc2n(-c2cccc(NC(=O)Nc3ccccc3OC)c2)c1=O` [Example 34(2), 2-(2-Methoxycarbonylethyl)-3-oxo-4-[3-[3-(2-methoxyphenyl)ureido]phenyl]-3,4-dihydropyrido-[2,3-b]pyrazine] yielded a melting point of 194 to 196 °C.

For the molecule `COc1ccccc1NC(=O)Nc1cccc(-n2c(=O)c(CCC(=O)N3CCN(C)CC3)nc3cccnc32)c1` [Example 35, 4-[3-[3-(2-methoxyphenyl)ureido]phenyl]-2-[2-(4-methylpiperazin-1-yl)carbonylethyl]-3-oxo-3,4-dihydropyrido[2,3-b]pyrazine], the melting point is 195 to 197 °C.

In the case of `COC(=O)[C@@H]1CCCN1C(=O)CCc1nc2cccnc2n(-c2cccc(NC(=O)Nc3ccccc3OC)c2)c1=O` [Example 36, 4-[3-[3-(2-Methoxyphenyl)ureido]phenyl]-3-oxo-2-[2[(2S)-2-methoxycarbonylpyrrolidin-1-yl]carbonylethyl]-3,4-dihydropyrido[2,3-b]pyrazine], the melting point fell in the range of 209 to 212 °C.

The molecule `O=C(Nc1ccc(F)c(-n2c(=O)c(Cc3cccnc3)nc3cccnc32)c1)c1ccc2ccccc2c1` [Example 41(20), 4-[2-Fluoro-5-(2-naphthoylamino)phenyl]-2-(3-pyridylmethyl)-3-oxo-3,4-dihydropyrido[2,3-b]pyrazine] registered a melting point of 264 to 268 °C.

Take `O=c1c(Cc2cccnc2)nc2cccnc2n1-c1cccc(-c2ccc3ccccc3c2)c1` [Example 43, 4-[3-(2-naphthyl)phenyl]-2-(3-pyridylmethyl)-3-oxo-3,4-dihydropyrido[2,3-b]pyrazine]: the melting point fell in the range of 155 to 156 °C.

Molecule `COc1ccccc1NC(=O)Nc1cccc(-n2c(=O)c(Cc3ccccc3)nc3cccnc32)c1` [Example 45(6), 2-Benzyl-4-[3-[3-(2-methoxyphenyl)ureido]phenyl]-3-oxo-3,4-dihydropyrido[2,3-b]pyrazine] showed a melting point of 238 to 239 °C.

Molecule `N#Cc1cccn1-c1cccc(-n2c(=O)c(Cc3ccccc3)nc3cccnc32)c1` [Example 45(7), 2-Benzyl-4-[3-(2-cyanopyrrol-1-yl)phenyl]-3-oxo-3,4-dihydropyrido[2,3-b]pyrazine] registered a melting point of 165 to 166 °C.

In turn, `O=c1c(Cc2ccccc2)nc2cccnc2n1-c1cccc(-c2nc3ccccc3s2)c1` [Example 45(8), 2-Benzyl-4-[3-(benzothiazol-2-yl)phenyl]-3-oxo-3,4-dihydropyrido[2,3-b]pyrazine] gave a melting point of 197 to 198 °C.

In the case of `O=C(c1ccccc1)c1cccc(-n2c(=O)c(Cc3ccccc3)nc3cccnc32)c1` [Example 45(9), 2-Benzyl-4-(3-benzoylphenyl)-3-oxo-3,4-dihydropyrido[2,3-b]pyrazine], the melting point lay in the range of 154 to 155 °C.

With `O=c1c(Cc2ccccc2)nc2cccnc2n1-c1cccc(C(F)(F)F)c1` [Example 45(10), 2-Benzyl-4-(3-trifluoromethylphenyl)-3-oxo-3,4-dihydropyrido[2,3-b]pyrazine], the melting point lay in the range of 125 to 127 °C.

As for `CC(=O)c1cn(-c2cccc(-n3c(=O)c(Cc4ccccc4)nc4cccnc43)c2)c2ccccc12` [Example 45(11), 2-Benzyl-4-[3-(3-acetylindol-1-yl)phenyl]-3-oxo-3,4-dihydropyrido[2,3-b]pyrazine], the melting point was 157 to 159 °C.

Molecule `COC(=O)c1cccc(-n2c(=O)c(Cc3cccnc3)nc3cccnc32)c1` [Example 45(12), 4-(3-Methoxycarbonylphenyl)-2-(3-pyridylmethyl)-3-oxo-3,4-dihydropyrido[2,3-b]pyrazine] registered a melting point of 208 to 210 °C.

Turning to `O=c1c(Cc2cccnc2)nc2cccnc2n1-c1cccc(-n2cccc2)c1` [Example 45(13), 4-[3-(1-Pyrrolyl)phenyl]-2-(3-pyridylmethyl)-3-oxo-3,4-dihydropyrido[2,3-b]pyrazine], the melting point fell in the range of 128 to 130 °C.

In turn, `O=c1c(Cc2cccnc2)nc2cccnc2n1-c1cccc(C(F)(F)F)c1` [Example 45(14), 4-(3-Trifluoromethylphenyl)-2-(3-pyridylmethyl)-3-oxo-3,4-dihydropyrido[2,3-b]pyrazine] showed a melting point of 88 to 90 °C.

With `CC(=O)Nc1ccc(F)c(-n2c(=O)c(Cc3cccnc3)nc3cccnc32)c1` [Example 45(15), 4-(5-Acetamido-2-fluorophenyl)-2-(3-pyridylmethyl)-3-oxo-3,4-dihydropyrido[2,3-b]pyrazine], the melting point lay within 212 to 214 °C.

For `O=C(c1ccccc1)c1cccc(-n2c(=O)c(Cc3cccnc3)nc3cccnc32)c1` [Example 45(16), 4-(3-Benzoylphenyl)-2-(3-pyridylmethyl)-3-oxo-3,4-dihydropyrido[2,3-b]pyrazine], the melting point lay within 142 to 143 °C.

`CC(=O)c1cn(-c2cccc(-n3c(=O)c(Cc4cccnc4)nc4cccnc43)c2)c2ccccc12` [Example 45(17), 4-[3-(3-Acetylindol-1-yl)phenyl]-2-(3-pyridylmethyl)--3-oxo-3,4-dihydropyrido[2,3-b]pyrazine] returned a melting point of 153 to 156 °C.

Regarding `O=c1c(Cc2cccnc2)nc2cccnc2n1-c1cccc(-n2ccc3ccccc32)c1` [Example 45(18), 4-[3-(1-Indolyl)phenyl]-2-(3-pyridylmethyl)-3-oxo-3,4-dihydropyrido[2,3-b]pyrazine], the melting point was in the range of 166 to 168 °C.

As for `O=c1c(Cc2cccnc2)nc2cccnc2n1-c1cccc(-c2cccc3ccccc23)c1` [Example 45(19), 4-[3-(1-Naphthyl)phenyl]-2-(3-pyridylmethyl)-3-oxo-3,4-dihydropyrido[2,3-b]pyrazine], the melting point is 162 to 165 °C.

Regarding `Nc1cccc(-n2c(=O)c(Cc3cccnc3)nc3cccnc32)c1` [Example 46, 4-(3-aminophenyl)-2-(3-pyridylmethyl)-3-oxo-3,4-dihydropyrido[2,3-b]pyrazine], the melting point is 168 to 170 °C.

Turning to `Nc1ccc(F)c(-n2c(=O)c(Cc3cccnc3)nc3cccnc32)c1` [Example 47, 4-(5-Amino-2-fluorophenyl)-2-(3-pyridylmethyl)-3-oxo-3,4-dihydropyrido[2,3-b]pyrazine], the melting point lay in the range of 177 to 179 °C.

`O=C(Nc1ccc(F)c(-n2c(=O)c(Cc3cccnc3)nc3cccnc32)c1)Nc1ccccc1F` [Example 50(1), 4-[2-Fluoro-5-[3-(2-fluorophenyl)ureido]phenyl]-2-(3-pyridylmethyl)-3-oxo-3,4-dihydropyrido[2,3-b]pyrazine]: the melting point lay in the range of 146 to 149 °C.

Molecule `COc1ccccc1NC(=O)Nc1ccc(F)c(-n2c(=O)c(Cc3cccnc3)nc3cccnc32)c1` [Example 50(2), 4-[2-Fluoro-5-[3-(2-methoxyphenyl)ureido]phenyl]-2-(3-pyridylmethyl)-3-oxo-3,4-dihydropyrido[2,3-b]pyrazine] had a melting point of 152 to 155 °C.

In turn, `O=C(Nc1cccc(-n2c(=O)c(Cc3cccnc3)nc3cccnc32)c1)Nc1ccccc1[N+](=O)[O-]` [Example 50(3), 4-[3-[3-(2-Nitrophenyl)ureido]phenyl]-2-(3-pyridylmethyl)-3-oxo-3,4-dihydropyrido[2,3-b]pyrazine] returned a melting point of 188 to 189 °C.
